The source of these data is ChEMBL document CHEMBL3259750, “The antibacterial properties of sulfur containing flavonoids” (2014).

The source made the active and inactive calls. No cut-off for these calls is given here.

Assay [1] relates to Staphylococcus aureus. The assay is described as follows: Antibacterial activity against Staphylococcus aureus ATCC 25923 assessed as diameter of growth inhibition zone at 0.25 mg/ml after 24 hrs by disk diffusion assay. The following applies: for zone of inhibition at 250 µg/mL: ATCC 25923, 24 h, read-out: DIZ. The assay is classed as functional. For orientation: A growth-free zone around the sample is the usual read-out of agar diffusion tests.

Assay [2] relates to Staphylococcus aureus. Kind of assay: Antibacterial activity against Staphylococcus aureus ATCC 25923 assessed as diameter of growth inhibition zone at 0.5 mg/ml after 24 hrs by disk diffusion assay. The assay is classed as functional. The following applies: for zone of inhibition at 500 µg/mL: ATCC 25923, 24 h, read-out: DIZ.
Assay [3] has as its system Staphylococcus aureus. Kind of assay: Antibacterial activity against Staphylococcus aureus ATCC 25923 assessed as diameter of growth inhibition zone at 1 mg/ml after 24 hrs by disk diffusion assay. Type of assay: functional. Conditions: for zone of inhibition at 1000 µg/mL: ATCC 25923, 24 h, read-out: DIZ.
Assay [4] relates to Escherichia coli. Kind of assay: Antibacterial activity against Escherichia coli ATCC 25922 assessed as diameter of growth inhibition zone at 0.25 mg/ml after 24 hrs by disk diffusion assay. The assay is classed as functional. Conditions: for zone of inhibition at 250 µg/mL: ATCC 25922, 24 h, read-out: DIZ.
For assay [5], the system named is Escherichia coli. The assay is described as follows: Antibacterial activity against Escherichia coli ATCC 25922 assessed as diameter of growth inhibition zone at 0.5 mg/ml after 24 hrs by disk diffusion assay. The assay is classed as functional. The following applies: for zone of inhibition at 500 µg/mL: ATCC 25922, 24 h, read-out: DIZ.
Assay [6] deals with Escherichia coli. The assay is described as follows: Antibacterial activity against Escherichia coli ATCC 25922 assessed as diameter of growth inhibition zone at 1 mg/ml after 24 hrs by disk diffusion assay. The assay is classed as functional. The following applies: for zone of inhibition at 1000 µg/mL: ATCC 25922, 24 h, read-out: DIZ.
Assay [7] has as its system Staphylococcus aureus. Kind of assay: Antibacterial activity against Staphylococcus aureus ATCC 25923 assessed as growth inhibition after 18 hrs by colorimetric microdilution technique. Type of assay: functional. The following applies: ATCC 25923, 18 h. In general terms: Broth dilution looks for growth in wells or tubes with falling amounts of substance.
In assay [8] the test system is Escherichia coli. The assay is described as follows: Antibacterial activity against Escherichia coli ATCC 25922 assessed as growth inhibition after 18 hrs by colorimetric microdilution technique. The assay is classed as functional. Conditions: ATCC 25922, 18 h.
The test system of a further assay is Candida albicans. The assay is described as follows: Antifungal activity against Candida albicans ATCC 90028. The assay is classed as functional, organism-based.
Assay [9] has as its system Staphylococcus aureus. Kind of assay: Antibacterial activity against Staphylococcus aureus ATCC 25923 assessed as diameter of growth inhibition zone at 10 ug/disk after 24 hrs by disk diffusion assay. The assay is classed as functional, organism-based.
In assay [10] the test system is Escherichia coli. The assay is described as follows: Antibacterial activity against Escherichia coli ATCC 25922 assessed as diameter of growth inhibition zone at 10 ug/disk after 24 hrs by disk diffusion assay. Type of assay: functional, organism-based.

For the compound `CCN(CC)C(=S)SC1C(=O)c2cc(Br)cc(Br)c2OC1c1ccc(Cl)cc1` (stereo not given), the “diameter of the inhibition zone (DIZ)” value with Staphylococcus aureus [1], in the assay on Staphylococcus aureus [2], in the assay with Staphylococcus aureus [3], in the assay with Escherichia coli [4], in the assay with Escherichia coli [5] and in the assay with Escherichia coli [6] was “inactive” each time.
As a reminder, the MIC is the least concentration at which growth counts as inhibited. On to `CCN(CC)[c+]1sc2c(s1)C(c1ccc(Cl)cc1)Oc1c(I)cc(I)cc1-2.F[B-](F)(F)F` (stereo not given), for which the MIC worked out at 0.97 µg/mL with Staphylococcus aureus [7] and 15.6 µg/mL with Escherichia coli [8].
As for `CCN(CC)[c+]1sc2c(s1)C(c1ccc(Cl)cc1)Oc1ccc(Br)cc1-2.[O-][Cl+3]([O-])([O-])[O-]` (stereo not given), the figures for the zone of inhibition at 250 µg/mL in the assay on Staphylococcus aureus [1] and in the assay with Escherichia coli [4] were 15 mm and 8.33 mm, respectively. Further, the figures for the zone of inhibition at 500 µg/mL in the assay on Staphylococcus aureus [2] and in the assay on Escherichia coli [5] were 17.3 mm and 10.7 mm, respectively. The zone of inhibition at 1000 µg/mL amounted to 20.3 mm in the assay on Staphylococcus aureus [3] and 11.7 mm in the assay on Escherichia coli [6]. The MIC turned out to be 0.48 µg/mL in the assay with Staphylococcus aureus [7] and 3.9 µg/mL in the assay on Escherichia coli [8].
Turning to `CCN(CC)[c+]1sc2c(s1)C(c1ccc(Cl)cc1)Oc1c(I)cc(I)cc1-2.[O-][Cl+3]([O-])([O-])[O-]` (stereo not given), the values for the zone of inhibition at 250 µg/mL in the assay with Staphylococcus aureus [1] and with Escherichia coli [4] were 8.33 mm and 7.66 mm, respectively. The zone of inhibition at 500 µg/mL in the assay with Staphylococcus aureus [2] came to 14 mm; in the assay with Escherichia coli [5], 8.33 mm. For the same compound, the results for the zone of inhibition at 1000 µg/mL with Staphylococcus aureus [3] and with Escherichia coli [6] were 16.7 mm and 9.33 mm, respectively. The MIC worked out at 1.95 µg/mL in the assay on Staphylococcus aureus [7] and 7.81 µg/mL in the assay with Escherichia coli [8].
As to `CCN(CC)C(=S)SC1C(=O)c2cc(I)cc(I)c2OC1c1ccc(Cl)cc1` (stereo not given), the “diameter of the inhibition zone (DIZ)” value with Staphylococcus aureus [1], in the assay with Staphylococcus aureus [2], in the assay with Staphylococcus aureus [3], with Escherichia coli [4], with Escherichia coli [5] and in the assay on Escherichia coli [6] was “inactive” each time.
For the compound `CCN(CC)C(=S)SC1C(=O)c2ccccc2OC1c1ccc(Cl)cc1` (mixture of isomers), the “diameter of the inhibition zone (DIZ)” value with Staphylococcus aureus [1], with Staphylococcus aureus [2], with Staphylococcus aureus [3], with Escherichia coli [4], in the assay on Escherichia coli [5] and in the assay with Escherichia coli [6] was “inactive” in each case.
In the case of `CCN(CC)[c+]1sc2c(s1)C(c1ccc(Cl)cc1)Oc1ccccc1-2.F[B-](F)(F)F` (stereo not given), in the assay with Staphylococcus aureus [1], the zone of inhibition at 250 µg/mL was 7.33 mm. In addition, the zone of inhibition at 500 µg/mL in the assay on Staphylococcus aureus [2] came to 14.3 mm. In addition, the zone of inhibition at 1000 µg/mL in the assay with Staphylococcus aureus [3] came to 16.3 mm. In addition, the “diameter of the inhibition zone (DIZ)” value with Escherichia coli [4], in the assay on Escherichia coli [5] and in the assay on Escherichia coli [6] was “inactive” throughout. The MIC was found to be 1.95 µg/mL in the assay with Staphylococcus aureus [7] and 62.5 µg/mL in the assay on Escherichia coli [8]. Also, the result in the assay with Candida albicans was Active.
Consider `CCN(CC)[c+]1sc2c(s1)C(c1ccc(Cl)cc1)Oc1c(Br)cc(Br)cc1-2.F[B-](F)(F)F` (stereo not given), for which, in the assay on Staphylococcus aureus [1], the zone of inhibition at 250 µg/mL came to 17.7 mm. In the assay with Staphylococcus aureus [2], the zone of inhibition at 500 µg/mL was found to be 18.7 mm. Also, the zone of inhibition at 1000 µg/mL was 21.3 mm in the assay with Staphylococcus aureus [3] and 10.7 mm with Escherichia coli [6]. Moreover, the “diameter of the inhibition zone (DIZ)” value in the assay on Escherichia coli [4] and in the assay with Escherichia coli [5] was “inactive” throughout. Moreover, the MIC with Staphylococcus aureus [7] was 1.95 µg/mL; in the assay on Escherichia coli [8], 7.81 µg/mL. Further, the outcome in the assay on Candida albicans was Active.
As for `CCN(CC)C(=S)SC1C(=O)c2cc(Br)ccc2OC1c1ccc(Cl)cc1` (stereo not given), the “diameter of the inhibition zone (DIZ)” value with Staphylococcus aureus [1], with Staphylococcus aureus [2], with Staphylococcus aureus [3], in the assay on Escherichia coli [4], with Escherichia coli [5] and in the assay on Escherichia coli [6] was “inactive” in each case.
In the case of `CCN(CC)C(=S)SC1C(=O)c2cc(Br)ccc2OC1c1ccc(OC)cc1` (mixture of isomers), the “diameter of the inhibition zone (DIZ)” value with Staphylococcus aureus [1], with Staphylococcus aureus [2], with Staphylococcus aureus [3], in the assay with Escherichia coli [4], with Escherichia coli [5] and in the assay on Escherichia coli [6] was “inactive” throughout.
As for `CCN(CC)[c+]1sc2c(s1)C(c1ccc(Cl)cc1)Oc1ccc(Br)cc1-2.F[B-](F)(F)F` (stereo not given), the MIC in the assay on Staphylococcus aureus [7] came out at 0.48 µg/mL; in the assay with Escherichia coli [8] it was 3.9 µg/mL.
Turning to `CCN(CC)[c+]1sc2c(s1)C(c1ccc(OC)cc1)Oc1ccc(Br)cc1-2.[O-][Cl+3]([O-])([O-])[O-]` (stereo not given), the zone of inhibition at 250 µg/mL in the assay on Staphylococcus aureus [1] worked out at 7.66 mm; in the assay with Escherichia coli [4] it was 6.66 mm. Moreover, the zone of inhibition at 500 µg/mL is 9.66 mm with Staphylococcus aureus [2] and 7.33 mm with Escherichia coli [5]. The zone of inhibition at 1000 µg/mL with Staphylococcus aureus [3] came out at 13.7 mm; in the assay on Escherichia coli [6], 7.66 mm. Further, the values for the minimum inhibitory concentration (MIC) with Staphylococcus aureus [7] and in the assay on Escherichia coli [8] were 3.9 µg/mL and 125 µg/mL, respectively.
As for GENTAMICIN, the figures for the inhibition zone (IZ) in the assay on Staphylococcus aureus [9] and in the assay on Escherichia coli [10] were 18.3 mm and 15.8 mm, respectively.
Regarding `CCN(CC)[c+]1sc2c(s1)C(c1ccc(OC)cc1)Oc1ccc(Br)cc1-2.F[B-](F)(F)F` (stereo not given), the MIC in the assay on Staphylococcus aureus [7] was 1.95 µg/mL; in the assay on Escherichia coli [8] it was 125 µg/mL.
